BindingDB's records for doi:10.1124/jpet.105.097006 (Acadia Pharmaceuticals, 2006)

What was measured:
[1] = biological target: T1, 5-hydroxytryptamine receptor 2C (Homo sapiens, UniProt P28335); test: Radioligand Binding Assay; conditions: 4 °C
T1 sequence (P28335 whole entry): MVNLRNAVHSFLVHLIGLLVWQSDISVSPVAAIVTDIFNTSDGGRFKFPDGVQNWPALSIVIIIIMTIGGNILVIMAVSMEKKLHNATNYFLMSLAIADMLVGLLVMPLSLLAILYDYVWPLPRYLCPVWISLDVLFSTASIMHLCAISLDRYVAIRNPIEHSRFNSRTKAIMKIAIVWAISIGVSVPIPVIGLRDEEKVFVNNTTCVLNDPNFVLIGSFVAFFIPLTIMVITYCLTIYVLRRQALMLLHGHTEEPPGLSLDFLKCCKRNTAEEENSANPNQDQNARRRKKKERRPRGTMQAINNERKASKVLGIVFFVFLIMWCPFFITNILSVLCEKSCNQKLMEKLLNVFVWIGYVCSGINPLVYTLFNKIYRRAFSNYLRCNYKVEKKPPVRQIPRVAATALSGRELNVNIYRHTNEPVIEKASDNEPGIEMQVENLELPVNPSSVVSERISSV
Description: (§1) For the membrane binding, NIH-3T3 cells were grown to 70% confluence in 15-cm2 dishes and transfected with 10 ug of receptor plasmid DNA using Polyfect transfection reagent (QIAGEN, Valencia, CA) according to manufacturer s protocols. Two days after transfection, cells expressing the desired serotonin receptor were homogenized in 20 mM HEPES/10 mM EDTA and spun down at 11,000g at 4 C for 30 min. The supernatant was discarded, and the pellet was resuspended in 20 mM HEPES/1 mM EDTA and spun down at the same setting. The pellet was then resuspended in 20 mM HEPES/0.5 mM EDTA, and membranes were used for binding assays. Bradford analysis was used to determine total membrane protein.

[2] = biological target: T1, 5-hydroxytryptamine receptor 2C; test: Receptor Selection and Amplification Technology
[3] = biological target: 5-hydroxytryptamine receptor 2B (Homo sapiens, UniProt P41595); test: Receptor Selection and Amplification Technology
Chain of 5-hydroxytryptamine receptor 2B (P41595 whole entry): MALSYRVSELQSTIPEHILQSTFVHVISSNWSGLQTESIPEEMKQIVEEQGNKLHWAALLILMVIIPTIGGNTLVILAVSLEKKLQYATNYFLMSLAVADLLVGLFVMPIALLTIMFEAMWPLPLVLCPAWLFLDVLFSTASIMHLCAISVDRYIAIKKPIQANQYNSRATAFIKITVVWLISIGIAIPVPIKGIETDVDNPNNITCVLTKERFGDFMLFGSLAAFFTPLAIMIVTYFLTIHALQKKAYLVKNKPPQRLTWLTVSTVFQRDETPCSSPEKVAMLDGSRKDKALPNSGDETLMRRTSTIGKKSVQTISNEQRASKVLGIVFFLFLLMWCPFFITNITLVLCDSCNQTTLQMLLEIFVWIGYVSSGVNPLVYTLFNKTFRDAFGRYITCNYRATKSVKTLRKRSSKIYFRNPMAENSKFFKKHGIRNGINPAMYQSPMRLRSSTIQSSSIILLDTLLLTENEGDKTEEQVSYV

[4] = biological target: T2, 5-hydroxytryptamine receptor 2A (Homo sapiens, UniProt P28223); test: Radioligand Binding Assay; conditions: 4 °C
T2 sequence (P28223 whole entry): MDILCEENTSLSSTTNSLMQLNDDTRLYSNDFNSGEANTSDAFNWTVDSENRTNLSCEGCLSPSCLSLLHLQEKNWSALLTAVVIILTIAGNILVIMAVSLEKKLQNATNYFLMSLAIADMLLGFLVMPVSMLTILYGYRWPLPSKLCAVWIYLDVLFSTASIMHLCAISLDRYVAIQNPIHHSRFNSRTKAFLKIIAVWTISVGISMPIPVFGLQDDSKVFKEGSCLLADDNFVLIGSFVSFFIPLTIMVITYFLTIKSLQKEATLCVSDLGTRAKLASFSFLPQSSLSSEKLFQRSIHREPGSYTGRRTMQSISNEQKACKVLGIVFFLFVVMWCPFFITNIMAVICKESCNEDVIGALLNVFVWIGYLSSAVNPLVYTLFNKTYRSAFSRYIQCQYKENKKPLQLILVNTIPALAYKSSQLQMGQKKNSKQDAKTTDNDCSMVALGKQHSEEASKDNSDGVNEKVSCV
Description: as §1

[5] = biological target: T2, 5-hydroxytryptamine receptor 2A; test: Receptor Selection and Amplification Technology

Cc1nc2sccn2c(=O)c1CCN1CCC(=C(c2ccc(F)cc2)c2ccc(F)cc2)CC1
Ki [1]: 0.44 nM | IC50 [2]: 4.5 nM | IC50 [3]: 3 nM

CN(C)CCON/C(=C/C=C1C=CC(=O)C=C1)c1ccccc1F [eplivanserin]
Ki [1]: 1.3 nM | Ki [4]: 0.046 nM | IC50 [5]: 1 nM
